15 compounds from patent US20250163104A1, “MACROCYCLIC IMMUNOMODULATORS” (priority 2021, published 2025) can be followed below.

In the test the target is T1, human PD-1 / PD-L1-Ig binding on Jurkat cell line over-expressing human PD-1 (Jurkat-PD-1) (Homo sapiens, UniProt Q15116).
T1 construct: expressed in transfected cells; host or cells: Jurkat
Nature of the test: Jurkat-PD-1 Cell Binding High-Content Screening Assay (CBA). Type of test: cell-based. A digest of the protocol: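 Jurkat-hPD-1 cells in DMEM with 10% fetal calf serum receive test compound and are held at 37° C for 2 h. PE-labeled PD-L1-Ig is added at 20 nM final and left for 1 hour. Cells are then fixed and Hoechst-stained, and binding is measured by imaging.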

The mark [1] stands for this setting: Jurkat-PD-1 cells, PE-labeled PD-L1-Ig 20 nM final; read-out: Jurkat HPD1_PDL1 IC50.

Where two headings read alike, the source gives them in different places. Where a SMILES comes first, the peptide text is derived from it. Bridges are numbered along the chain shown (N, C = ends). [ ]: non-standard residue; d: D form. The star is where a group is joined. ξ: configuration not given here. Bip(4'-COOH) = N[C@@H](Cc1ccc(-c2ccc(C(=O)O)cc2)cc1)C(=O)O; Phe(4-COOH) = N[C@@H](Cc1ccc(C(=O)O)cc1)C(=O)O; Bip = N[C@@H](Cc1ccc(-c2ccccc2)cc1)C(=O)O; Phe(3-F) = N[C@@H](Cc1cccc(F)c1)C(=O)O; Phe(3-Me) = Cc1cccc(C[C@H](N)C(=O)O)c1; Val(3-OH) = CC(C)(O)[C@H](N)C(=O)O; 4Pal = N[C@@H](Cc1ccncc1)C(=O)O; Cha = N[C@@H](CC1CCCCC1)C(=O)O; Cit = NC(=O)NCCC[C@H](N)C(=O)O; Ile(3ξ) = CCC(C)[C@H](N)C(=O)O; dCha = N[C@H](CC1CCCCC1)C(=O)O; Thr(3ξ) = CC(O)[C@H](N)C(=O)O; Carboxymethyl = O=C(O)C*; Nle = CCCC[C@H](N)C(=O)O; Orn = NCCC[C@H](N)C(=O)O; Pra = C#CC[C@H](N)C(=O)O; Dab = NCC[C@H](N)C(=O)O; Dap = NC[C@H](N)C(=O)O

T1 sequence (Q15116 25-288): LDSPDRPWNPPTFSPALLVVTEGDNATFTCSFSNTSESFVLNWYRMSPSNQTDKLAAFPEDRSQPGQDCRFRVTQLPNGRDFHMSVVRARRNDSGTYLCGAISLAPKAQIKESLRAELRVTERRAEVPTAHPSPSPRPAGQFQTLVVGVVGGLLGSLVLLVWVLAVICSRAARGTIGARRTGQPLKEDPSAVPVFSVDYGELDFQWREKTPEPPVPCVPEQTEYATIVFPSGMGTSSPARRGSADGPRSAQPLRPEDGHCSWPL

Broadly, the IC50 is the concentration that inhibits the measured activity by half. On to `Cc1cccc(C[C@@H]2NC(=O)[C@H](CC(=O)O)NC(=O)[C@H](Cc3ccc(OCC(=O)O)cc3)NC(=O)[C@H](CCCNC(=N)N)NC(=O)CSC[C@@H](C(N)=O)NC(=O)[C@H]([C@@H](C)O)NC(=O)[C@H](C(C)C)NC(=O)[C@H](CC3CCCCC3)NC(=O)[C@H](CCN)NC(=O)[C@@H](CC(C)C)NC(=O)[C@H](CCCN)NC(=O)[C@H](CCCN)NC(=O)[C@H](Cc3ccc(-c4ccccc4)cc3)NC(=O)[C@H](Cc3ccc(O)cc3)NC2=O)c1` [Compound 2055] ({CH2CO}-RY(Carboxymethyl)D[Phe(3-Me)]Y[Bip][Orn][Orn][dL][Dab][Cha]VTC-NH2; thioether N-14), for which, under setting [1], the IC50 stood at 0.0973 µM.

For the compound `C#CC[C@H](NC(=O)[C@@H]1CSCC(=O)N[C@@H](CCN)C(=O)N[C@@H](Cc2ccc(OCC(=O)O)cc2)C(=O)N[C@@H](CC(=O)O)C(=O)N[C@@H](Cc2cccc(C)c2)C(=O)N[C@@H](Cc2ccc(OCC(=O)O)cc2)C(=O)N[C@@H](Cc2ccc(-c3ccccc3)cc2)C(=O)N[C@@H](Cc2ccc(OCC(=O)O)cc2)C(=O)N[C@@H](CCCN)C(=O)N[C@H](CC(C)C)C(=O)N[C@@H](CCN)C(=O)N[C@@H](CC2CCCCC2)C(=O)N[C@@H](C(C)(C)O)C(=O)N[C@@H](CCCN)C(=O)N1)C(=O)O` [Compound 2686] ({CH2CO}-[Dab]Y(Carboxymethyl)D[Phe(3-Me)]Y(Carboxymethyl)[Bip]Y(Carboxymethyl)[Orn][dL][Dab][Cha][Val(3-OH)][Orn]C[Pra]-OH; thioether N-14), the IC50 under setting [1] is 0.0333 µM. `Cc1cccc(C[C@@H]2NC(=O)[C@H](CC(=O)O)NC(=O)[C@H](Cc3ccc(C(=O)O)cc3)NC(=O)[C@H](Cc3ccncc3)NC(=O)CSC[C@@H](C(=O)N[C@@H](C)C(N)=O)NC(=O)[C@H]([C@@H](C)O)NC(=O)[C@H](C(C)C)NC(=O)[C@H](CC3CCCCC3)NC(=O)[C@H](CCN)NC(=O)[C@@H](CC(C)C)NC(=O)[C@H](CCCN)NC(=O)[C@H](C(C)(C)C)NC(=O)[C@H](Cc3ccc(-c4ccccc4)cc3)NC(=O)[C@H](C(C)C)NC2=O)c1` [Compound 1618]: under setting [1], the IC50 was 0.0227 µM.

Regarding `CC(=O)NCCC[C@@H]1NC(=O)[C@H](C(C)C)NC(=O)[C@H](CC2CCCCC2)NC(=O)[C@H](CCN)NC(=O)[C@@H](CC(C)C)NC(=O)[C@H](CCCN)NC(=O)[C@H](Cc2ccc(OCC(=O)O)cc2)NC(=O)[C@H](Cc2ccc(-c3ccccc3)cc2)NC(=O)[C@H](Cc2ccc(O)cc2)NC(=O)[C@H](Cc2cccc(C)c2)NC(=O)[C@H](CC(=O)O)NC(=O)[C@H](Cc2ccc(OCC(=O)O)cc2)NC(=O)[C@H](CCCNC(=N)N)NC(=O)CSC[C@@H](C(N)=O)NC1=O` [Compound 2054] ({CH2CO}-RY(Carboxymethyl)D[Phe(3-Me)]Y[Bip]Y(Carboxymethyl)[Orn][dL][Dab][Cha]V[Orn](Ac)C-NH2; thioether N-14), the IC50 under setting [1] came to 0.0124 µM. On the same count and under the same terms, as for `CCC(C)[C@@H]1NC(=O)[C@H](Cc2ccc(-c3ccccc3)cc2)NC(=O)[C@H](C(C)C)NC(=O)[C@H](Cc2c[nH]c3ccccc23)NC(=O)[C@H](CC(=O)O)NC(=O)[C@H](Cc2ccc(OCC(=O)O)cc2)NC(=O)[C@H](CCN)NC(=O)CSC[C@@H](C(=O)N[C@@H](C)C(N)=O)NC(=O)[C@H](C(C)O)NC(=O)[C@H](C(C)C)NC(=O)[C@H](CC(C)C)NC(=O)[C@H](CCN)NC(=O)[C@@H](CC(C)C)NC(=O)[C@H](CCCN)NC1=O` (stereo partly drawn) [Compound 2507] ({CH2CO}-[Dab]Y(Carboxymethyl)DWV[Bip][Ile(3ξ)][Orn][dL][Dab]LV[Thr(3ξ)]CA-NH2; thioether N-14), the figure is 0.0208 µM; as for `COc1ccc(C[C@@H]2NC(=O)[C@H](CN)NC(=O)CSC[C@@H](C(=O)N[C@@H](C)C(N)=O)NC(=O)[C@H]([C@@H](C)O)NC(=O)[C@H](C(C)C)NC(=O)[C@H](CC3CCCCC3)NC(=O)[C@H](CCN)NC(=O)[C@@H](CC(C)C)NC(=O)[C@H](CCCN)NC(=O)[C@H](CCCNC(N)=O)NC(=O)[C@H](Cc3ccc(-c4ccccc4)cc3)NC(=O)[C@H](C(C)C)NC(=O)[C@H](Cc3c[nH]c4ccccc34)NC(=O)[C@H](CC(=O)O)NC2=O)cc1` [Compound 2112], 0.018 µM.

`CC(C)C[C@H]1NC(=O)[C@H](CCCN)NC(=O)[C@H](CCCNC(N)=O)NC(=O)[C@H](Cc2ccc(-c3ccccc3)cc2)NC(=O)[C@H](C(C)C)NC(=O)[C@H](Cc2c[nH]c3ccccc23)NC(=O)[C@H](CC(=O)O)NC(=O)[C@H](Cc2ccc(-c3ccc(C(=O)O)cc3)cc2)NC(=O)[C@H](CN)NC(=O)CSC[C@@H](C(=O)N[C@@H](C)C(N)=O)NC(=O)[C@H]([C@@H](C)O)NC(=O)[C@H](C(C)C)NC(=O)[C@H](CC2CCCCC2)NC(=O)[C@H](CCN)NC1=O` [Compound 2089] ({CH2CO}-[Dap][Bip(4'-COOH)]DWV[Bip][Cit][Orn][dL][Dab][Cha]VTCA-NH2; thioether N-14): under setting [1], the concentration for half-maximal inhibition (IC50) was found to be 0.0083 µM. In the case of `CCC(C)[C@@H]1NC(=O)[C@H](Cc2ccc(-c3ccccc3)cc2)NC(=O)[C@H](CO)NC(=O)[C@H](Cc2c[nH]c3ccccc23)NC(=O)[C@H](CC(=O)O)NC(=O)[C@H](Cc2ccc(OCC(=O)O)cc2)NC(=O)[C@H](C(C)O)NC(=O)CSC[C@@H](C(=O)N[C@@H](CC(N)=O)C(=O)O)NC(=O)[C@H](CO)NC(=O)[C@H](C(C)C)NC(=O)[C@H](CC(C)C)NC(=O)[C@H](CCN)NC(=O)[C@@H](CC(C)C)NC(=O)[C@H](CCCN)NC1=O` (stereo partly drawn) [Compound 2581] ({CH2CO}-[Thr(3ξ)]Y(Carboxymethyl)DWS[Bip][Ile(3ξ)][Orn][dL][Dab]LVSCN-OH; thioether N-14), under “read-out: Jurkat HPD1_PDL1 IC50; Jurkat-PD-1 cells, PE-labeled PD-L1-Ig 20 nM final”, the IC50 was 0.472 µM. `Cc1cccc(C[C@@H]2NC(=O)[C@H](CC(=O)O)NC(=O)[C@H](Cc3ccc(C(=O)O)cc3)NC(=O)[C@H](Cc3ccncc3)NC(=O)CSC[C@@H](C(=O)N[C@@H](CC(N)=O)C(N)=O)NC(=O)[C@H](CO)NC(=O)[C@H](C(C)C)NC(=O)[C@H](CC3CCCCC3)NC(=O)[C@H](CCN)NC(=O)[C@@H](CC(C)C)NC(=O)[C@H](CCCN)NC(=O)[C@H](Cc3ccc(OCC(=O)O)cc3)NC(=O)[C@H](Cc3ccc(-c4ccccc4)cc3)NC(=O)[C@H](Cc3ccc(OCC(=O)O)cc3)NC2=O)c1` [Compound 2303] ({CH2CO}-[4Pal][Phe(4-COOH)]D[Phe(3-Me)]Y(Carboxymethyl)[Bip]Y(Carboxymethyl)[Orn][dL][Dab][Cha]VSCN-NH2; thioether N-14): the IC50 under setting [1] was found to be 0.0053 µM. The same measure, in the same setting: as for `CC(C)C[C@H]1NC(=O)[C@H](CCCN)NC(=O)[C@H](C(C)C)NC(=O)[C@H](Cc2ccc(-c3ccccc3)cc2)NC(=O)[C@H](C(C)C)NC(=O)[C@H](Cc2c[nH]c3ccccc23)NC(=O)[C@H](CC(=O)O)NC(=O)[C@H](Cc2ccc(OCC(=O)O)cc2)NC(=O)[C@H](Cc2ccncc2)NC(=O)CSC[C@@H](C(=O)N[C@@H](C)C(N)=O)NC(=O)[C@H]([C@@H](C)O)NC(=O)[C@H](C(C)C)NC(=O)[C@H](CC2CCCCC2)NC(=O)[C@H](Cc2cnc[nH]2)NC1=O` [Compound 1607], the figure is 0.0146 µM; as for `CC(C)C[C@H]1NC(=O)[C@H](CCCN)NC(=O)[C@H](CCCNC(N)=O)NC(=O)[C@H](Cc2ccc(-c3ccccc3)cc2)NC(=O)[C@H](C(C)C)NC(=O)[C@H](Cc2c[nH]c3ccccc23)NC(=O)[C@H](CC(=O)O)NC(=O)[C@H](Cc2ccsc2)NC(=O)[C@H](CN)NC(=O)CSC[C@@H](C(=O)N[C@@H](C)C(N)=O)NC(=O)[C@H]([C@@H](C)O)NC(=O)[C@H](C(C)C)NC(=O)[C@H](CC2CCCCC2)NC(=O)[C@H](CCN)NC1=O` [Compound 2100], 0.0212 µM. Same read-out and setting: as for `CC(C)[C@@H]1NC(=O)[C@H](Cc2c[nH]c3ccccc23)NC(=O)[C@H](CC(=O)O)NC(=O)[C@H](Cc2ccncc2)NC(=O)[C@H](Cc2ccc(OCC(=O)O)cc2)NC(=O)CSC[C@@H](C(=O)N[C@@H](C)C(N)=O)NC(=O)[C@H]([C@@H](C)O)NC(=O)[C@H](C(C)C)NC(=O)[C@H](CC2CCCCC2)NC(=O)[C@H](CCN)NC(=O)[C@@H](CC2CCCCC2)NC(=O)[C@H](CCCN)NC(=O)[C@H](CCC(=O)O)NC(=O)[C@H](Cc2ccc(-c3ccccc3)cc2)NC1=O` [Compound 1441] ({CH2CO}-Y(Carboxymethyl)[4Pal]DWV[Bip]E[Orn][dCha][Dab][Cha]VTCA-NH2; thioether N-14), the figure is 0.0134 µM. Same read-out and setting: for `CCCC[C@@H]1NC(=O)[C@H](CCCNC(=N)N)NC(=O)[C@@H](CC(C)C)NC(=O)[C@H](CCCN)NC(=O)[C@H](CCCNC(N)=O)NC(=O)[C@H](Cc2ccc(-c3ccccc3)cc2)NC(=O)[C@H](C(C)C)NC(=O)[C@H](Cc2c[nH]c3ccccc23)NC(=O)[C@H](CC(=O)O)NC(=O)[C@H](Cc2ccc(O)cc2)NC(=O)[C@H](CC(N)=O)NC(=O)CSC[C@@H](C(=O)N[C@@H](C)C(N)=O)NC(=O)[C@H]([C@@H](C)O)NC(=O)[C@H](C(C)C)NC1=O` [Compound 1177] ({CH2CO}-NYDWV[Bip][Cit][Orn][dL]R[Nle]VTCA-NH2; thioether N-14) the value was 0.0789 µM.

For the compound `CCCC[C@H]1NC(=O)[C@H](CCCN)NC(=O)[C@H]([C@@H](C)CC)NC(=O)[C@H](Cc2ccc(-c3ccccc3)cc2)NC(=O)[C@H](C(C)C)NC(=O)[C@H](Cc2c[nH]c3ccccc23)NC(=O)[C@H](CC(=O)O)NC(=O)[C@H](Cc2ccc(C(=O)O)cc2)NC(=O)[C@H](Cc2ccc(OCC(=O)O)cc2)NC(=O)CSC[C@@H](C(=O)N[C@@H](C)C(N)=O)NC(=O)[C@H]([C@@H](C)O)NC(=O)[C@H](C(C)C)NC(=O)[C@H](CC2CCCCC2)NC(=O)[C@H](CCN)NC1=O` [Compound 1707], the IC50 under setting [1] came out at 0.0186 µM. Same read-out and setting: for `CC(C)C[C@H]1NC(=O)[C@H](CCCN)NC(=O)[C@H](CCCNC(N)=O)NC(=O)[C@H](Cc2ccc(-c3ccccc3)cc2)NC(=O)[C@H](C(C)C)NC(=O)[C@H](Cc2c[nH]c3ccccc23)NC(=O)[C@H](CC(=O)O)NC(=O)[C@H](Cc2ccc(OCC(=O)O)cc2)NC(=O)[C@H](Cc2ccc(OCC(=O)O)cc2)NC(=O)CSC[C@@H](C(=O)N[C@@H](C)C(N)=O)NC(=O)[C@H]([C@@H](C)O)NC(=O)[C@H](C(C)C)NC(=O)[C@H](Cc2cccc(F)c2)NC(=O)[C@H](CCN)NC1=O` [Compound 1676] ({CH2CO}-Y(Carboxymethyl)Y(Carboxymethyl)DWV[Bip][Cit][Orn][dL][Dab][Phe(3-F)]VTCA-NH2; thioether N-14) the value was 0.0222 µM.
